Experimental data taken from patent US9907857B2, “Peptide having cell membrane penetrating activity” (EWHA UNIVERSITY-INDUSTRY COLLABORATION FOUNDATION, priority 2006, dated 2018).
“And” between values parts separate entries of the source, which are not always exact repeats. Equal entries are not always repeated. “Also recorded” adds a separate entry of the source.

What was measured:
[1] = test system: HeLa cells; test: Cell penetrating activity of FITC-labelled mutant peptides, mean fluorescence intensity by FACS; type: cell-based; details: for translocation efficiency compared with another peptide variant (comparator named in the value) / mean fluorescence intensity (MFI) relative to WT, MFI of WT at 10 μM set to 1 / mean fluorescence intensity (MFI) relative to WT: 2 hours, FACS; for mean fluorescence intensity (MFI) relative to WT, MFI of WT at 10 μM set to 1: peptide at 10 μM; for penetrating activity compared with TAT: 100 μM; for mean fluorescence intensity (MFI) relative to WT: peptide at 100 μM
Description: N-terminus of each peptide was labeled with fluorescence dye, FITC and C-terminus was protected. Peptide purity (>95%) was determined by HPLC. Synthesis of the peptides of the present invention was requested to PEPTRON, Inc.
HeLa cell line was propagated in DMEM supplemented with 10% FBS and 100 units/mL penicillin-streptomycin. Cells were grown in a 5% CO2 incubator at 37° C.
HeLa cells were cultured in 6-well plate until they were 70˜80% grown up before a day of the experiment. The cells were washed with DMEM of 37° C. twice, and TCTP-derived peptides synthesized in Example 5-1) were treated to the culture medium in a dose dependent manner (0, 1, 10, 100 μM), then the cells was incubated for 2 hours in an CO2 incubator at 37° C.,
After the incubation, the cells were washed in cool PBS two times and treated with 1 mg/ml trypsin for 15 min at 37° C. to digest peptides attached on cell membrane and washed in PBS twice again. Then, the cells were analyzed by FACS at emission 510 nm and excitation 530 nm for a measurement of FITC of intracellular uptake marker (FIGS. 7, 8 and 9). Intracellular translocation efficiency of mutant peptides, TCTP-CPP#1-35(SEQ ID Nos.: 20-54) was compared to wild type(WT), TCTP(1-10)(SEQ ID No.: 1) and control peptide, TAT(48-57).

[2] = test system: HeLa cells; test: Cell penetrating efficiency of rhodamine-labelled TCTP-derived peptides, microplate fluorescence reader; type: cell-based; details: for intracellular translocation, dependence on concentration: 0-100 μM, 15 minutes or 2 hours; for efficiency versus control peptide TAT at low concentration: 1 μM and 10 μM; for cell penetrating activity / translocation efficiency in comparison with TAT (words): HeLa, rhodamine-labelled peptides, overall
Description: N-terminus of each peptides was labeled with fluorescence dye, rhodamine and C-terminus was protected. Peptide purity (>95%) was determined by HPLC. Synthesis of the peptides was requested to PEPTRON, Inc.
HeLa cell line (ATCC) was propagated in DMEM (GIBCO) supplemented with 10% FBS (GIBCO) and 100 units/mL penicillin-streptomycin. Cells were grown in a 5% CO2 incubator at 37° C.
HeLa cells were cultured in 48-well plate until they were 70˜80% grown up before a day of the experiment. The cells were washed with DMEM of 37° C. twice, and TCTP-derived peptides synthesized in Example 2-1) were treated to the culture medium in a dose dependent manner (0, 1, 5, 10, 50, 100 μM), then the cells was incubated for 15 minutes or 2 hours in an CO2 incubator at 37° C.
After the incubation, the cells were washed in cool PBS three times and immediately measured by a microplate fluorescence reader (BIO-TEK instruments, Inc., Vermont, USA) at emission 530 nm and excitation 590 nm for a measurement of rhodamine of intracellular uptake marker. The sensitivity of reader was set at 100 as a basic mode, but was lowered to 75 if the fluorescent signals were too strong. All experiments were conducted in triplet repeats for reproducibility (FIG. 2 and FIG. 3).

WIIFRALISHKK (mutant peptide based on human sequence; (1)..(12) TCTP-CPP#19) [SEQ ID No.: 38]
translocation efficiency compared with another peptide variant (comparator named in the value) [1]: lower than SEQ ID No.: 34 at the concentration of 100 μM; also recorded: substitution for tryptophan did not increase translocation efficiency
mean fluorescence intensity (MFI) relative to WT, MFI of WT at 10 μM set to 1 [1]: 55.6 times

WIIFKIAASHKK (mutant peptide based on human sequence; (1)..(12) TCTP-CPP#25) [SEQ ID No.: 44]
mean fluorescence intensity (MFI) relative to WT, MFI of WT at 10 μM set to 1 [1]: 15.04 times

MIIFRIAASHKK (mutant peptide based on human sequence; (1)..(12) TCTP-CPP#12) [SEQ ID No.: 31]
translocation efficiency compared with another peptide variant (comparator named in the value) [1]: similarly increased at 100 μM
mean fluorescence intensity (MFI) relative to WT, MFI of WT at 10 μM set to 1 [1]: 29 times and 26.77 times

MIIFRILISHKK (mutant peptide based on human sequence; (1)..(12) TCTP-CPP#28) [SEQ ID No.: 47]
mean fluorescence intensity (MFI) relative to WT, MFI of WT at 10 μM set to 1 [1]: 7.04 times

MIIFAIAASHKK (mutant peptide based on human sequence; (1)..(12) TCTP-CPP#26) [SEQ ID No.: 45]
mean fluorescence intensity (MFI) relative to WT, MFI of WT at 10 μM set to 1 [1]: 11.47 times

LIIFRILISHKK (mutant peptide based on human sequence; (1)..(12) TCTP-CPP#27) [SEQ ID No.: 46]
translocation efficiency compared with another peptide variant (comparator named in the value) [1]: substitution for leucine caused the decreased penetrating activity
mean fluorescence intensity (MFI) relative to WT, MFI of WT at 10 μM set to 1 [1]: 3.75 times

FIIFRIAASHKK (mutant peptide based on human sequence; (1)..(12) TCTP-CPP#15) [SEQ ID No.: 34]
translocation efficiency compared with another peptide variant (comparator named in the value) [1]: increased result of translocation efficiency at the concentration of 10 μM and a decreased result at 100 μM, compared to SEQ ID No.: 31

MIIFRDLISH (mutant peptide based on human sequence; (1)..(10) TCTP-CPP#3) [SEQ ID No.: 22]
penetrating activity compared with TAT [1]: better penetrating activity than TAT(100 μM)
mean fluorescence intensity (MFI) relative to WT, MFI of WT at 10 μM set to 1 [1]: 19.63 times
mean fluorescence intensity (MFI) relative to WT [1]: 216.75 times

MIIYRDLISH ((1)..(10) 1-10 amino acid residue of TCTP; listed as Homo sapiens) [SEQ ID No.: 1, Residues of TCTP(1-10)]
intracellular translocation, dependence on concentration [2]: translocated not in 1-10 μM but in 50-100 μM
efficiency versus control peptide TAT at low concentration [2]: lower efficiency than control peptide, TAT
cell penetrating activity, SEQ ID No.: 1 versus SEQ ID No.: 2 ([2]; 50 μM (FIGS. 2 & 3)): more effective than SEQ ID No.: 2
concentration at which translocation was saturated ([2]; 2 hour treatment (FIG. 3)): 50 µM
cell penetrating activity / translocation efficiency in comparison with TAT (words) [2]: excellent cell penetrating activity in comparison with conventional TAT
cell penetrating activity / translocation efficiency in comparison with TAT (words) ([2]; listed as TCTP (1-10)): superior ability than well-known PTD, TAT in their translocation efficiency
cell penetrating activity compared to that of TAT ([2]; treated for 15 minutes in 50 μM): over 3 times
cell penetrating activity compared to that of TAT ([2]; treated for 15 minutes in 100 μM): 6 times
cell penetrating activity compared to that of TAT ([2]; treatment for 2 hours, 50 μM): about 29 times
cell penetrating activity compared to that of TAT ([2]; treatment for 2 hours, 100 μM): ~30 times

MIIYRIAASHKK (mutant peptide based on human sequence; (1)..(12) TCTP-CPP#8) [SEQ ID No.: 27]
penetrating activity compared with TAT [1]: better penetrating activity than TAT(100 μM)
cell penetrating activity compared with WT SEQ ID No.: 1 ([1]; concentration not given): increased cell penetrating activity
mean fluorescence intensity (MFI) relative to WT, MFI of WT at 10 μM set to 1 [1]: 1.73 times
mean fluorescence intensity (MFI) relative to WT [1]: 342.9 times

MIIFRAAASHKK (mutant peptide based on human sequence; (1)..(12) TCTP-CPP#14) [SEQ ID No.: 33]
translocation efficiency compared with another peptide variant (comparator named in the value) [1]: similarly increased at 100 μM
mean fluorescence intensity (MFI) relative to WT, MFI of WT at 10 μM set to 1 [1]: 3.2 times

LIIFRIAASHKK (mutant peptide based on human sequence; (1)..(12) TCTP-CPP#16) [SEQ ID No.: 35]
translocation efficiency compared with another peptide variant (comparator named in the value) [1]: increased result of translocation efficiency at the concentration of 10 μM and a decreased result at 100 μM, compared to SEQ ID No.: 31
mean fluorescence intensity (MFI) relative to WT, MFI of WT at 10 μM set to 1 [1]: 29.53 times

LIIFAIAASHKK (mutant peptide based on human sequence; (1)..(12) TCTP-CPP#34) [SEQ ID No.: 53]
mean fluorescence intensity (MFI) relative to WT, MFI of WT at 10 μM set to 1 [1]: 8.24 times

MIIFKIAASHKK (mutant peptide based on human sequence; (1)..(12) TCTP-CPP#24) [SEQ ID No.: 43]
mean fluorescence intensity (MFI) relative to WT, MFI of WT at 10 μM set to 1 [1]: 12.1 times

MIIYRALISHKK (mutant peptide based on human sequence; (1)..(12) TCTP-CPP#7) [SEQ ID No.: 26]
penetrating activity compared with TAT [1]: better penetrating activity than TAT(100 μM)
cell penetrating activity compared with WT SEQ ID No.: 1 ([1]; concentration not given): increased cell penetrating activity
mean fluorescence intensity (MFI) relative to WT, MFI of WT at 10 μM set to 1 [1]: 6.04 times
mean fluorescence intensity (MFI) relative to WT [1]: 144.6 times

MIIYRAEISH (mutant peptide based on human sequence; (1)..(10) TCTP-CPP#10) [SEQ ID No.: 29]
cell penetrating activity compared with WT SEQ ID No.: 1 ([1]; concentration not given): decreased to same degree with alanine substituent

MIIFRIAAYHKK (mutant peptide based on human sequence; (1)..(12) TCTP-CPP#20) [SEQ ID No.: 39]
translocation efficiency compared with another peptide variant (comparator named in the value) [1]: lower than SEQ ID No.: 34 at the concentration of 100 μM
mean fluorescence intensity (MFI) relative to WT, MFI of WT at 10 μM set to 1 [1]: 25.0 times

LIIFRILISHHH (mutant peptide based on human sequence; (1)..(12) TCTP-CPP#30) [SEQ ID No.: 49]
cell penetrating activity compared with TAT ([1]; concentration not given): excellent activity compared with TAT

WIIFRAAASHKK (mutant peptide based on human sequence; (1)..(12) TCTP-CPP#18) [SEQ ID No.: 37]
translocation efficiency compared with another peptide variant (comparator named in the value) [1]: lower than SEQ ID No.: 34 at the concentration of 100 μM; also recorded: substitution for tryptophan did not increase translocation efficiency
mean fluorescence intensity (MFI) relative to WT, MFI of WT at 10 μM set to 1 [1]: 52.0 times

WIIFRIAASHKK (mutant peptide based on human sequence; (1)..(12) TCTP-CPP#17) [SEQ ID No.: 36]
translocation efficiency compared with another peptide variant (comparator named in the value) [1]: stronger than SEQ ID No.: 40(WT-IX:Y) and SEQ ID No.: 42(WT-IX:T) only at 10 μM
mean fluorescence intensity (MFI) relative to WT, MFI of WT at 10 μM set to 1 [1]: 18.4 times

IIYRDLISH ((1)..(9) 2-10 amino acid residue of TCTP; listed as Homo sapiens) [SEQ ID No.: 4, Residues of TCTP(2-10)]
intracellular translocation, dependence on concentration [2]: not translocated at a concentration of 1 μM to 10 μM
efficiency versus control peptide TAT at low concentration [2]: lower efficiency than control peptide, TAT
translocation ([2]; 100 μM, 15 minutes treatment): more efficiently translocated at 100 μM after 15 minutes treatment
cell penetrating activity / translocation efficiency in comparison with TAT (words) [2]: excellent cell penetrating activity in comparison with conventional TAT
cell penetrating activity / translocation efficiency in comparison with TAT (words) ([2]; listed as TCTP (2-10)): superior ability than well-known PTD, TAT in their translocation efficiency
cell penetrating activity / translocation efficiency in comparison with TAT (words) ([2]; listed as TCTP(2-10)): more excellent penetrating activity than well-known TAT(47-58) peptide
translocation versus control peptide TAT(48-57) ([2]; after 2 hours, 100 μM): more efficiently translocated at 100 μM than control peptide

MIIYRDKKSH (mutant peptide based on human sequence; (1)..(10) TCTP-CPP#2) [SEQ ID No.: 21]
cell penetrating activity compared with WT SEQ ID No.: 1 ([1]; concentration not given): decreased twice

CIISRDLISH (mutant peptide based on human sequence; (1)..(10) TCTP-CPP#6) [SEQ ID No.: 25]
mean fluorescence intensity (MFI) relative to WT, MFI of WT at 10 μM set to 1 [1]: 0.91 times
mean fluorescence intensity (MFI) relative to WT [1]: 1.81 times
